Source: the supplement of paper PMC10307832

Key:
Test in all cases: relative viability (nuclei count vs DMSO), 5 days (fraction); higher = more cells survive
AT-7519 + Vorinostat = compound: O=C(NC1CCNCC1)c1n[nH]cc1NC(=O)c1c(Cl)cccc1Cl [AT-7519] + O=C(CCCCCCC(=O)Nc1ccccc1)NO [Vorinostat] (partner 1 µM)
Procedure, shortened: (§1)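 Each reported value is a median over duplicate plates. It expresses relative viability: treated-well nuclei count divided by vehicle-well nuclei count. Lung cancer cell lines in 1536-well plates were dosed by pin tool a day after seeding, alone with one drug or with a fixed anchor-drug dose plus five library-drug doses (not always all listed) in √10 steps, and nuclei were counted after 5 days.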

AT-7519 + Decitabine = compound: O=C(NC1CCNCC1)c1n[nH]cc1NC(=O)c1c(Cl)cccc1Cl [AT-7519] + Nc1ncn([C@H]2C[C@H](O)[C@@H](CO)O2)c(=O)n1 [Decitabine] (partner 2 µM)
Procedure, shortened: as §1

AT-7519 + Dasatinib = compound: O=C(NC1CCNCC1)c1n[nH]cc1NC(=O)c1c(Cl)cccc1Cl [AT-7519] + Cc1nc(Nc2ncc(C(=O)Nc3c(C)cccc3Cl)s2)cc(N2CCN(CCO)CC2)n1 [Dasatinib] (partner 0.075 µM)
Procedure, shortened: as §1

[1] = compound: C1=CC2=C(C=C(C(=C2N=C1)O)N=NC3=CC4=C(C=C3)C=C(C=C4)S(=O)(=O)O)S(=O)(=O)O + O=C(CCCCCCC(=O)Nc1ccccc1)NO [Vorinostat] (partner 1 µM)
Procedure, shortened: as §1

Cell Line	relative viability (AT-7519 + Vorinostat; first compound 0.01 µM)	relative viability (AT-7519 + Vorinostat; first compound 0.03162 µM)	relative viability (AT-7519 + Vorinostat; first compound 0.3162 µM)	relative viability (AT-7519 + Vorinostat; first compound 1 µM)	relative viability (AT-7519 + Decitabine; first compound 0.01 µM)	relative viability (AT-7519 + Decitabine; first compound 0.03162 µM)	relative viability (AT-7519 + Decitabine; first compound 0.3162 µM)	relative viability (AT-7519 + Decitabine; first compound 1 µM)	relative viability (AT-7519 + Dasatinib; first compound 0.01 µM)	relative viability (AT-7519 + Dasatinib; first compound 0.03162 µM)	relative viability (AT-7519 + Dasatinib; first compound 0.3162 µM)	relative viability (AT-7519 + Dasatinib; first compound 1 µM)	relative viability ([1]; first compound 0.08 µM)	relative viability ([1]; first compound 0.253 µM)	relative viability ([1]; first compound 0.8 µM)	relative viability ([1]; first compound 2.53 µM)	relative viability ([1]; first compound 8 µM)
NCI-H1355	0.65	0.624	0.661	0.598	0.347	0.347	0.359	0.331	0.747	0.633	0.602	0.784	0.646	0.619	0.615	0.605	0.481
H3255	0.794	0.816	0.905	0.787	0.721	0.58	0.573	0.57	0.441	0.417	0.409	0.313	0.84	0.828	0.803	0.846	0.754
NCI-H1993	0.629	0.605	0.82	0.539	0.671	0.597	0.543	0.391	0.626	0.516	0.441	0.312	0.844	0.866	0.798	0.783	0.788
NCI-H1734	0.723	0.831	0.739	0.535	0.46	0.463	0.486	0.351	0.445	0.421	0.391	0.31	0.788	0.852	0.757	0.718	0.859
HOP-62	0.555	0.608	0.682	0.565	0.224	0.203	0.217	0.23	0.653	0.699	0.731	0.626	0.438	0.693	0.602	0.619	0.6
LOU-NH91	0.932	1	0.897	0.82	0.761	0.791	0.795	0.739	0.613	0.6	0.604	0.511	1	0.89	0.903	0.865	0.639
ChaGo-K-1	0.734	0.741	0.797	0.752	0.534	0.526	0.519	0.461	0.583	0.501	0.611	0.543	0.827	0.812	0.698	0.723	0.494
PC-14	0.838	0.668	0.621	0.388	0.264	0.205	0.189	0.0859	0.241	0.239	0.163	0.0573	0.815	0.83	0.816	0.745	0.752
NCI-H1437	0.815	0.842	0.929	0.353	0.527	0.59	0.548	0.347	0.444	0.424	0.377	0.486	0.901	0.857	0.851	0.923	0.841
NCI-H460	0.569	0.619	0.674	0.0847	0.452	0.432	0.388	0.0681	0.545	0.558	0.438	0.243	0.955	0.66	0.684	0.708	0.71
